Numbers after ± are expanded uncertainties.
Assay: xn = mol fraction of the nth substance listed
Conditions: Liquid, Pycnometric method

Cn1ccnc1 [1-methylimidazole] + O=C=O
mass density (308.2 K, 7790 kPa, x1 = 0.0247): 745 ± 4 kg/m3
mass density (308.2 K, 7860 kPa, x1 = 0.0102): 638 ± 4 kg/m3
mass density (308.2 K, 7870 kPa, x1 = 0.0102): 640 ± 4 kg/m3
mass density (308.2 K, 7900 kPa, x1 = 0.0102): 646 ± 4 kg/m3
mass density (308.2 K, 7940 kPa, x1 = 0.0102): 652 ± 4 kg/m3
mass density (308.2 K, 7950 kPa, x1 = 0.0102): 655 ± 4 kg/m3
mass density (308.2 K, 7970 kPa, x1 = 0.0247): 755 ± 4 kg/m3
mass density (308.2 K, 7980 kPa, x1 = 0.0102): 661 ± 4 kg/m3
mass density (308.2 K, 8020 kPa, x1 = 0.0102): 667 ± 4 kg/m3
mass density (308.2 K, 8080 kPa, x1 = 0.0102): 676 ± 4 kg/m3
mass density (308.2 K, 8160 kPa, x1 = 0.0102): 686 ± 4 kg/m3
mass density (308.2 K, 8200 kPa, x1 = 0.0247): 766 ± 4 kg/m3
mass density (308.2 K, 8260 kPa, x1 = 0.0102): 696 ± 4 kg/m3
mass density (308.2 K, 8380 kPa, x1 = 0.0102): 706 ± 4 kg/m3
mass density (308.2 K, 8470 kPa, x1 = 0.0247): 777 ± 4 kg/m3
mass density (308.2 K, 8520 kPa, x1 = 0.0102): 716 ± 4 kg/m3
mass density (308.2 K, 8590 kPa, x1 = 0.0487): 838 ± 4 kg/m3
mass density (308.2 K, 8680 kPa, x1 = 0.0487): 841 ± 4 kg/m3
mass density (308.2 K, 8690 kPa, x1 = 0.0102): 727 ± 4 kg/m3
mass density (308.2 K, 8790 kPa, x1 = 0.0487): 844 ± 4 kg/m3
mass density (308.2 K, 8820 kPa, x1 = 0.0247): 790 ± 4 kg/m3
mass density (308.2 K, 8910 kPa, x1 = 0.0102): 738 ± 4 kg/m3
mass density (308.2 K, 8910 kPa, x1 = 0.0487): 847 ± 4 kg/m3
mass density (308.2 K, 9040 kPa, x1 = 0.0487): 849 ± 4 kg/m3
mass density (308.2 K, 9150 kPa, x1 = 0.0102): 750 ± 4 kg/m3
mass density (308.2 K, 9150 kPa, x1 = 0.0487): 852 ± 4 kg/m3
mass density (308.2 K, 9250 kPa, x1 = 0.0247): 802 ± 4 kg/m3
mass density (308.2 K, 9290 kPa, x1 = 0.0487): 853 ± 4 kg/m3
mass density (308.2 K, 9440 kPa, x1 = 0.0102): 761 ± 4 kg/m3
mass density (308.2 K, 9450 kPa, x1 = 0.0487): 858 ± 4 kg/m3
mass density (308.2 K, 9600 kPa, x1 = 0.0487): 860 ± 4 kg/m3
mass density (308.2 K, 9750 kPa, x1 = 0.0247): 815 ± 4 kg/m3
mass density (308.2 K, 9750 kPa, x1 = 0.0487): 863 ± 4 kg/m3
mass density (308.2 K, 9800 kPa, x1 = 0.0102): 773 ± 4 kg/m3
mass density (308.2 K, 9850 kPa, x1 = 0.1024): 937 ± 4 kg/m3
mass density (308.2 K, 9920 kPa, x1 = 0.0487): 866 ± 4 kg/m3
mass density (308.2 K, 10030 kPa, x1 = 0.1024): 939 ± 4 kg/m3
mass density (308.2 K, 10130 kPa, x1 = 0.0247): 824 ± 4 kg/m3
mass density (308.2 K, 10200 kPa, x1 = 0.0102): 786 ± 4 kg/m3
mass density (308.2 K, 10360 kPa, x1 = 0.1024): 942 ± 4 kg/m3
mass density (308.2 K, 10560 kPa, x1 = 0.0247): 833 ± 4 kg/m3
mass density (308.2 K, 10630 kPa, x1 = 0.1024): 945 ± 4 kg/m3
mass density (308.2 K, 10700 kPa, x1 = 0.0102): 799 ± 4 kg/m3
mass density (308.2 K, 11000 kPa, x1 = 0.1024): 948 ± 4 kg/m3
mass density (308.2 K, 11070 kPa, x1 = 0.0247): 842 ± 4 kg/m3
mass density (308.2 K, 11250 kPa, x1 = 0.0102): 812 ± 4 kg/m3
mass density (308.2 K, 11310 kPa, x1 = 0.1024): 951 ± 4 kg/m3
mass density (308.2 K, 11620 kPa, x1 = 0.0247): 851 ± 4 kg/m3
mass density (308.2 K, 11710 kPa, x1 = 0.1024): 954 ± 4 kg/m3
mass density (308.2 K, 11920 kPa, x1 = 0.0102): 826 ± 4 kg/m3
mass density (308.2 K, 12010 kPa, x1 = 0.1024): 956 ± 4 kg/m3
mass density (308.2 K, 12240 kPa, x1 = 0.0247): 860 ± 4 kg/m3
mass density (308.2 K, 12460 kPa, x1 = 0.1024): 960 ± 4 kg/m3
mass density (308.2 K, 12590 kPa, x1 = 0.0247): 865 ± 4 kg/m3
mass density (308.2 K, 12610 kPa, x1 = 0.0102): 840 ± 4 kg/m3
mass density (308.2 K, 12820 kPa, x1 = 0.1024): 963 ± 4 kg/m3
mass density (308.2 K, 12940 kPa, x1 = 0.0247): 870 ± 4 kg/m3
mass density (308.2 K, 13250 kPa, x1 = 0.1024): 966 ± 4 kg/m3
mass density (308.2 K, 13310 kPa, x1 = 0.0247): 875 ± 4 kg/m3
mass density (308.2 K, 13440 kPa, x1 = 0.0102): 859 ± 4 kg/m3
mass density (308.2 K, 13690 kPa, x1 = 0.1024): 969 ± 4 kg/m3
mass density (308.2 K, 13720 kPa, x1 = 0.0247): 880 ± 4 kg/m3
mass density (308.2 K, 14140 kPa, x1 = 0.0247): 885 ± 4 kg/m3
mass density (308.2 K, 14140 kPa, x1 = 0.1024): 972 ± 4 kg/m3
mass density (308.2 K, 14560 kPa, x1 = 0.0102): 875 ± 4 kg/m3
mass density (308.2 K, 14570 kPa, x1 = 0.1024): 975 ± 4 kg/m3
mass density (308.2 K, 14610 kPa, x1 = 0.0247): 890 ± 4 kg/m3
mass density (308.2 K, 14990 kPa, x1 = 0.0102): 880 ± 4 kg/m3
mass density (308.2 K, 15060 kPa, x1 = 0.0247): 895 ± 4 kg/m3
mass density (308.2 K, 15080 kPa, x1 = 0.1024): 978 ± 4 kg/m3
mass density (308.2 K, 15430 kPa, x1 = 0.0102): 886 ± 4 kg/m3
mass density (308.2 K, 15540 kPa, x1 = 0.1024): 981 ± 4 kg/m3
mass density (308.2 K, 15600 kPa, x1 = 0.0247): 901 ± 4 kg/m3
mass density (308.2 K, 16080 kPa, x1 = 0.1024): 984 ± 4 kg/m3
mass density (308.2 K, 16570 kPa, x1 = 0.1024): 987 ± 4 kg/m3
mass density (308.2 K, 17250 kPa, x1 = 0.1024): 991 ± 4 kg/m3
mass density (308.2 K, 17650 kPa, x1 = 0.1024): 994 ± 4 kg/m3
mass density (308.2 K, 18340 kPa, x1 = 0.1024): 998 ± 4 kg/m3
mass density (308.2 K, 18880 kPa, x1 = 0.1024): 1001 ± 4 kg/m3
mass density (309.8 K, 8020 kPa, x1 = 0.0102): 543 ± 4 kg/m3
mass density (309.8 K, 8030 kPa, x1 = 0.0102): 551 ± 4 kg/m3
mass density (309.8 K, 8040 kPa, x1 = 0.0102): 560 ± 4 kg/m3
mass density (309.8 K, 8060 kPa, x1 = 0.0102): 571 ± 4 kg/m3
mass density (309.8 K, 8070 kPa, x1 = 0.0102): 581 ± 4 kg/m3
mass density (309.8 K, 8090 kPa, x1 = 0.0102): 589 ± 4 kg/m3
mass density (309.8 K, 8110 kPa, x1 = 0.0102): 600 ± 4 kg/m3
mass density (309.8 K, 8140 kPa, x1 = 0.0102): 612 ± 4 kg/m3
mass density (309.8 K, 8180 kPa, x1 = 0.0102): 624 ± 4 kg/m3
mass density (309.8 K, 8230 kPa, x1 = 0.0102): 636 ± 4 kg/m3
mass density (309.8 K, 8300 kPa, x1 = 0.0102): 649 ± 4 kg/m3
mass density (309.8 K, 8390 kPa, x1 = 0.0102): 663 ± 4 kg/m3
mass density (309.8 K, 8500 kPa, x1 = 0.0102): 677 ± 4 kg/m3
mass density (309.8 K, 8650 kPa, x1 = 0.0102): 691 ± 4 kg/m3
mass density (309.8 K, 8830 kPa, x1 = 0.0102): 707 ± 4 kg/m3
mass density (309.8 K, 9090 kPa, x1 = 0.0102): 723 ± 4 kg/m3
mass density (309.8 K, 9420 kPa, x1 = 0.0102): 740 ± 4 kg/m3
mass density (309.8 K, 9830 kPa, x1 = 0.0102): 758 ± 4 kg/m3
mass density (309.8 K, 10210 kPa, x1 = 0.0102): 772 ± 4 kg/m3
mass density (309.8 K, 10880 kPa, x1 = 0.0102): 790 ± 4 kg/m3
mass density (309.8 K, 11970 kPa, x1 = 0.0102): 816 ± 4 kg/m3
mass density (309.8 K, 12530 kPa, x1 = 0.0102): 826 ± 4 kg/m3
mass density (309.8 K, 13140 kPa, x1 = 0.0102): 836 ± 4 kg/m3
mass density (309.8 K, 13680 kPa, x1 = 0.0102): 846 ± 4 kg/m3
mass density (313.1 K, 8750 kPa, x1 = 0.0102): 576 ± 4 kg/m3
mass density (313.1 K, 8770 kPa, x1 = 0.0102): 581 ± 4 kg/m3
mass density (313.1 K, 8810 kPa, x1 = 0.0102): 589 ± 4 kg/m3
mass density (313.1 K, 8850 kPa, x1 = 0.0102): 597 ± 4 kg/m3
mass density (313.1 K, 8890 kPa, x1 = 0.0102): 606 ± 4 kg/m3
mass density (313.1 K, 8900 kPa, x1 = 0.0247): 717 ± 4 kg/m3
mass density (313.1 K, 8940 kPa, x1 = 0.0102): 615 ± 4 kg/m3
mass density (313.1 K, 8990 kPa, x1 = 0.0102): 624 ± 4 kg/m3
mass density (313.1 K, 9000 kPa, x1 = 0.0247): 723 ± 4 kg/m3
mass density (313.1 K, 9040 kPa, x1 = 0.0102): 633 ± 4 kg/m3
mass density (313.1 K, 9120 kPa, x1 = 0.0102): 643 ± 4 kg/m3
mass density (313.1 K, 9120 kPa, x1 = 0.0247): 729 ± 4 kg/m3
mass density (313.1 K, 9200 kPa, x1 = 0.0102): 653 ± 4 kg/m3
mass density (313.1 K, 9260 kPa, x1 = 0.0247): 737 ± 4 kg/m3
mass density (313.1 K, 9300 kPa, x1 = 0.0102): 663 ± 4 kg/m3
mass density (313.1 K, 9400 kPa, x1 = 0.0247): 744 ± 4 kg/m3
mass density (313.1 K, 9420 kPa, x1 = 0.0102): 673 ± 4 kg/m3
mass density (313.1 K, 9550 kPa, x1 = 0.0102): 684 ± 4 kg/m3
mass density (313.1 K, 9560 kPa, x1 = 0.0247): 751 ± 4 kg/m3
mass density (313.1 K, 9700 kPa, x1 = 0.0102): 695 ± 4 kg/m3
mass density (313.1 K, 9730 kPa, x1 = 0.0247): 759 ± 4 kg/m3
mass density (313.1 K, 9900 kPa, x1 = 0.0102): 707 ± 4 kg/m3
mass density (313.1 K, 9940 kPa, x1 = 0.0247): 766 ± 4 kg/m3
mass density (313.1 K, 10070 kPa, x1 = 0.0487): 827 ± 4 kg/m3
mass density (313.1 K, 10130 kPa, x1 = 0.0102): 719 ± 4 kg/m3
mass density (313.1 K, 10170 kPa, x1 = 0.0247): 774 ± 4 kg/m3
mass density (313.1 K, 10190 kPa, x1 = 0.0487): 830 ± 4 kg/m3
mass density (313.1 K, 10320 kPa, x1 = 0.0487): 833 ± 4 kg/m3
mass density (313.1 K, 10380 kPa, x1 = 0.0102): 731 ± 4 kg/m3
mass density (313.1 K, 10440 kPa, x1 = 0.0487): 835 ± 4 kg/m3
mass density (313.1 K, 10560 kPa, x1 = 0.0487): 838 ± 4 kg/m3
mass density (313.1 K, 10570 kPa, x1 = 0.0247): 786 ± 4 kg/m3
mass density (313.1 K, 10690 kPa, x1 = 0.0487): 841 ± 4 kg/m3
mass density (313.1 K, 10700 kPa, x1 = 0.0102): 744 ± 4 kg/m3
mass density (313.1 K, 10830 kPa, x1 = 0.0487): 843 ± 4 kg/m3
mass density (313.1 K, 10870 kPa, x1 = 0.0247): 794 ± 4 kg/m3
mass density (313.1 K, 10990 kPa, x1 = 0.0487): 846 ± 4 kg/m3
mass density (313.1 K, 11080 kPa, x1 = 0.0102): 758 ± 4 kg/m3
mass density (313.1 K, 11130 kPa, x1 = 0.0487): 849 ± 4 kg/m3
